# PubChem BioAssay AID330 (DTP/NCI, 2004)
# “And” between values parts separate entries of the source, which are not always exact repeats. Equal entries are not always repeated. Toxic doses and inconclusive results are not listed.
# System: P388 leukemia ip, CD2F1 mice, survival T/C
# Test: NCI In Vivo Anticancer Drug Screen. Data for tumor model P388 Leukemia (intraperitoneal) in CD2F1 (CDF1) mice
# Details: endpoint: median survival time, higher = longer survival
# Procedure, shortened: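 Mice carrying the transplanted tumor received test compound or vehicle. Survival was recorded in each group, and the value is the treated-group measurement divided by that of the vehicle-treated control group.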
# [1] = dose: 200.0 mg/kg/injection, schedule: Q01DX009 (ip), vehicle: saline with Tween-80
# [2] = dose: 25.0 mg/kg/injection, schedule: Q01DX009 (ip), vehicle: Klucel (hydroxypropylcellulose) (HPC)
# [3] = dose: 50.0 mg/kg/injection, schedule: Q01DX009 (ip), vehicle: Klucel (hydroxypropylcellulose) (HPC)
# [4] = dose: 60.0 mg/kg/injection, schedule: Q01DX005 (ip), vehicle: saline with Tween-80
# [5] = dose: 120.0 mg/kg/injection, schedule: Q01DX005 (ip), vehicle: saline with Tween-80
# [6] = dose: 240.0 mg/kg/injection, schedule: Q01DX005 (ip), vehicle: saline with Tween-80
# [7] = dose: 60.0 mg/kg/injection, schedule: Q01DX005 (ip), vehicle: Klucel (hydroxypropylcellulose) (HPC)
# [8] = dose: 120.0 mg/kg/injection, schedule: Q01DX005 (ip), vehicle: Klucel (hydroxypropylcellulose) (HPC)
# [9] = dose: 15.0 mg/kg/injection, schedule: Q01DX005 (ip), vehicle: saline
# [10] = dose: 30.0 mg/kg/injection, schedule: Q01DX005 (ip), vehicle: saline
smiles,measurement,setting,value
COc1c(OC(C)=O)c(OC(C)=O)cc2c1-c1ccc(SC)c(=O)cc1C(NC(C)=O)CC2 (configuration not stated),T/C,"dose: 1.25 mg/kg/injection, schedule: Q01DX009 (ip), vehicle: Klucel (hydroxypropylcellulose) (HPC)",118 % of control
same,T/C,"dose: 5.0 mg/kg/injection, schedule: Q01DX009 (ip), vehicle: Klucel (hydroxypropylcellulose) (HPC)",150 % of control
same,T/C,"dose: 10.0 mg/kg/injection, schedule: Q01DX009 (ip), vehicle: Klucel (hydroxypropylcellulose) (HPC)",169 % of control and 185 % of control
same,T/C,"dose: 20.0 mg/kg/injection, schedule: Q01DX009 (ip), vehicle: Klucel (hydroxypropylcellulose) (HPC)",178 % of control
OCC1OC(n2cnc3c(SCc4ccccc4)ncnc32)C(O)C1O (configuration not stated),T/C,"dose: 88.0 mg/kg/injection, schedule: Q01DX009 (ip), vehicle: saline with Tween-80",100 % of control
same,T/C,"dose: 132.0 mg/kg/injection, schedule: Q01DX009 (ip), vehicle: saline with Tween-80",95 % of control
same,T/C,[1],86 % of control
O=c1ccnc[nH]1,T/C,"dose: 100.0 mg/kg/injection, schedule: Q04DX002 (ip), vehicle: saline with Tween-80",105 % of control
same,T/C,"dose: 200.0 mg/kg/injection, schedule: Q04DX002 (ip), vehicle: saline with Tween-80",93 % of control
C(=C\c1cc2cc(C3=NCCN3)ccc2o1)/c1cc2cc(C3=NCCN3)ccc2o1,T/C,"dose: 25.0 mg/kg/injection, schedule: Q04DX003 (ip), vehicle: suspension in saline",154 % of control
same,T/C,"dose: 50.0 mg/kg/injection, schedule: Q04DX003 (ip), vehicle: suspension in saline",152 % of control
same,T/C,"dose: 100.0 mg/kg/injection, schedule: Q04DX003 (ip), vehicle: suspension in saline",101 % of control
Cn1c(C=O)cnc1[N+](=O)[O-],T/C,"dose: 12.5 mg/kg/injection, schedule: Q01DX009 (ip), vehicle: Klucel (hydroxypropylcellulose) (HPC)",108 % of control
same,T/C,[2],111 % of control
same,T/C,[3],111 % of control and 115 % of control
CCN(CC)CCSc1c2ccccc2nc2ccccc12,T/C,"dose: 3.75 mg/kg/injection, schedule: Q01DX005 (ip), vehicle: saline with Tween-80",110 % of control
same,T/C,"dose: 7.5 mg/kg/injection, schedule: Q01DX005 (ip), vehicle: saline with Tween-80",114 % of control
same,T/C,"dose: 15.0 mg/kg/injection, schedule: Q01DX005 (ip), vehicle: saline with Tween-80",107 % of control
C=C/[Se](=C(/C#N)C(=O)c1ccccc1)c1ccccc1 (configuration not stated),T/C,"dose: 6.25 mg/kg/injection, schedule: Q01DX009 (ip), vehicle: saline",99 % of control
same,T/C,"dose: 12.5 mg/kg/injection, schedule: Q01DX009 (ip), vehicle: saline",99 % of control
same,T/C,"dose: 25.0 mg/kg/injection, schedule: Q01DX009 (ip), vehicle: saline",89 % of control
CN1C(=O)CCC1(O)C1SCCCS1 (configuration not stated),T/C,"dose: 50.0 mg/kg/injection, schedule: Q01DX005 (ip), vehicle: saline",102 % of control
same,T/C,"dose: 100.0 mg/kg/injection, schedule: Q01DX005 (ip), vehicle: saline",100 % of control
same,T/C,"dose: 200.0 mg/kg/injection, schedule: Q01DX005 (ip), vehicle: saline",102 % of control
O=c1ccc2nccc3c4cc(O)ccc4n1c23,T/C,"dose: 1.75 mg/kg/injection, schedule: Q01DX009 (ip), vehicle: saline with Tween-80",98 % of control
same,T/C,"dose: 7.0 mg/kg/injection, schedule: Q01DX009 (ip), vehicle: saline with Tween-80",109 % of control
CCn1c(=O)n(C)c(=O)c2[nH]c(Cl)nc21,T/C,"dose: 16.0 mg/kg/injection, schedule: Q01DX009 (ip), vehicle: Klucel (hydroxypropylcellulose) (HPC)",105 % of control
same,T/C,[2],92 % of control
same,T/C,"dose: 32.0 mg/kg/injection, schedule: Q01DX009 (ip), vehicle: Klucel (hydroxypropylcellulose) (HPC)",104 % of control
same,T/C,[3],91 % of control
same,T/C,"dose: 64.0 mg/kg/injection, schedule: Q01DX009 (ip), vehicle: Klucel (hydroxypropylcellulose) (HPC)",97 % of control
same,T/C,"dose: 100.0 mg/kg/injection, schedule: Q01DX009 (ip), vehicle: Klucel (hydroxypropylcellulose) (HPC)",94 % of control
C/C(=C\C1C/C(=C/CCc2ccoc2)C(=O)O1)CCCc1ccoc1 (configuration not stated),T/C,"dose: 25.0 mg/kg/injection, schedule: Q01DX009 (ip), vehicle: saline + alcohol",100 % of control
same,T/C,"dose: 50.0 mg/kg/injection, schedule: Q01DX009 (ip), vehicle: saline + alcohol",107 % of control
CC(/C=C/c1ccc(Cl)cc1)=N\NC(N)=O,T/C,[4],94 % of control
same,T/C,[5],99 % of control
same,T/C,[6],99 % of control
COC(=O)c1nc(=S)[nH]c(C(=O)OC)c1C(=O)c1ccc(O)c(OC)c1,T/C,[7],104 % of control
same,T/C,[8],90 % of control
COC(=O)Nc1cnc(C(=O)O)c(C)c1-c1ccc(OC)c(OC)c1OCc1ccccc1,T/C,"dose: 12.5 mg/kg/injection, schedule: Q01DX009 (ip), vehicle: other",97 % of control
same,T/C,"dose: 25.0 mg/kg/injection, schedule: Q01DX009 (ip), vehicle: other",100 % of control
same,T/C,"dose: 50.0 mg/kg/injection, schedule: Q01DX009 (ip), vehicle: other",102 % of control
same,T/C,"dose: 100.0 mg/kg/injection, schedule: Q01DX009 (ip), vehicle: other",101 % of control
same,T/C,"dose: 200.0 mg/kg/injection, schedule: Q01DX009 (ip), vehicle: other",103 % of control
COc1cccc(CCl)c1,T/C,"dose: 100.0 mg/kg/injection, schedule: Q01DX009 (ip), vehicle: saline with Tween-80",110 % of control and 118 % of control
same,T/C,[1],117 % of control and 124 % of control
O=C(O)c1cnc2cc3c(cc2c1Nc1cccc(Cl)c1)OCO3,T/C,[7],93 % of control
same,T/C,[8],105 % of control
same,T/C,"dose: 240.0 mg/kg/injection, schedule: Q01DX005 (ip), vehicle: Klucel (hydroxypropylcellulose) (HPC)",106 % of control
C=C1C(=O)OC2C1C(OC(=O)/C(C)=C/C)CC1(C)OC1C1OC1C1(CO1)C2O (configuration not stated),T/C,"dose: 5.0 mg/kg/injection, schedule: Q01DX005 (ip), vehicle: Klucel (hydroxypropylcellulose) (HPC)",106 % of control
same,T/C,"dose: 10.0 mg/kg/injection, schedule: Q01DX005 (ip), vehicle: Klucel (hydroxypropylcellulose) (HPC)",97 % of control
same,T/C,"dose: 20.0 mg/kg/injection, schedule: Q01DX005 (ip), vehicle: Klucel (hydroxypropylcellulose) (HPC)",95 % of control
same,T/C,"dose: 40.0 mg/kg/injection, schedule: Q01DX005 (ip), vehicle: Klucel (hydroxypropylcellulose) (HPC)",104 % of control
same,T/C,"dose: 80.0 mg/kg/injection, schedule: Q01DX005 (ip), vehicle: Klucel (hydroxypropylcellulose) (HPC)",116 % of control
CSc1nc(SC)c2cnn(Cc3ccccc3)c2n1,T/C,"dose: 50.0 mg/kg/injection, schedule: Q01DX005 (ip), vehicle: saline with Tween-80",96 % of control
same,T/C,"dose: 100.0 mg/kg/injection, schedule: Q01DX005 (ip), vehicle: saline with Tween-80",95 % of control
same,T/C,"dose: 200.0 mg/kg/injection, schedule: Q01DX005 (ip), vehicle: saline with Tween-80",93 % of control
CCCCCCC(=O)CC(SCCN)c1ccccc1Cl (configuration not stated),T/C,"dose: 3.75 mg/kg/injection, schedule: Q01DX005 (ip), vehicle: saline",100 % of control
same,T/C,"dose: 7.5 mg/kg/injection, schedule: Q01DX005 (ip), vehicle: saline",96 % of control
same,T/C,[9],97 % of control
same,T/C,[10],99 % of control
c1ccc(SNSc2ccccc2)cc1,T/C,"dose: 100.0 mg/kg/injection, schedule: Q04DX003 (ip), vehicle: Klucel (hydroxypropylcellulose) (HPC)",103 % of control
same,T/C,"dose: 200.0 mg/kg/injection, schedule: Q04DX003 (ip), vehicle: Klucel (hydroxypropylcellulose) (HPC)",101 % of control
same,T/C,"dose: 400.0 mg/kg/injection, schedule: Q04DX003 (ip), vehicle: Klucel (hydroxypropylcellulose) (HPC)",106 % of control
Nc1nnc(Cc2ccccc2)n1N,T/C,[9],100 % of control
same,T/C,[10],101 % of control
same,T/C,[4],98 % of control
same,T/C,"dose: 60.0 mg/kg/injection, schedule: Q01DX005 (ip), vehicle: saline",100 % of control and 117 % of control
same,T/C,[5],100 % of control
same,T/C,"dose: 120.0 mg/kg/injection, schedule: Q01DX005 (ip), vehicle: saline",116 % of control
same,T/C,[6],94 % of control
Nc1nnnn1/N=C/c1ccccc1,T/C,"dose: 50.0 mg/kg/injection, schedule: Q04DX002 (ip), vehicle: Klucel (hydroxypropylcellulose) (HPC)",87 % of control
same,T/C,"dose: 100.0 mg/kg/injection, schedule: Q04DX002 (ip), vehicle: Klucel (hydroxypropylcellulose) (HPC)",101 % of control
same,T/C,"dose: 200.0 mg/kg/injection, schedule: Q04DX002 (ip), vehicle: Klucel (hydroxypropylcellulose) (HPC)",100 % of control
CCCCCCCCC(O)CCC (configuration not stated),T/C,"dose: 100.0 mg/kg/injection, schedule: Q04DX003 (ip), vehicle: saline",100 % of control
same,T/C,"dose: 200.0 mg/kg/injection, schedule: Q04DX003 (ip), vehicle: saline",100 % of control
same,T/C,"dose: 400.0 mg/kg/injection, schedule: Q04DX003 (ip), vehicle: saline",100 % of control
